Measured values reported in US7462600B2, “Macrolides” (Pfizer Inc, priority 2004, dated 2008).
In brackets after ≈: the same amount, converted by molar mass. Where two headings read alike, the source gives them in different places.

How the values were obtained:
Format in all cases: cell-based
[1] = system: Streptococcus pyogenes 1079; experiment: MIC, microtiter broth dilution (NCCLS M100-S14), S. pyogenes 1079 (ermB)
In short: (§1)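 Stock solutions of 40 mg/ml in DMSO were used. MIC values came from microtiter-tray broth dilution following NCCLS M100-S14 guidelines.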

[2] = system: Streptococcus pneumoniae 1016; experiment: MIC, microtiter broth dilution (NCCLS M100-S14), S. pneumoniae 1016 (susceptible)
In short: as §1

[3] = system: Streptococcus pneumoniae 1095; details: microtiter broth dilution
In short: as §1

[4] = system: Streptococcus pneumoniae 1175; details: microtiter broth dilution
In short: as §1

[5] = system: Haemophilus influenzae 1218; experiment: MIC, microtiter broth dilution (NCCLS M100-S14), H. influenzae 1218 (susceptible)
In short: as §1

[6] = S. pneumoniae 1016 (susceptible)
[7] = H. influenzae 1218 (susceptible)

SMILES | MIC S. pyogenes 1079 ([1]; Streptococcus pyogenes 1079) [µg/mL] | MIC S. pneumo. 1016 ([2]; Streptococcus pneumoniae 1016) [µg/mL] | MIC S. pneumo. 1095 ([3]; Streptococcus pneumoniae 1095) [µg/mL] | MIC S. pneumo. 1175 ([4]; Streptococcus pneumoniae 1175) [µg/mL] | MIC H. influenzae 1218 ([5]; Haemophilus influenzae 1218) [µg/mL] | MIC S. pyogenes 1079 ([1]; S. pyogenes 1079 (ermB)) [µg/mL] | MIC S. pneumo. 1016 [2, 6] [µg/mL] | MIC S. pneumo. 1095 ([3]; S. pneumoniae 1095 (ermB)) [µg/mL] | MIC S. pneumo. 1175 ([4]; S. pneumoniae 1175 (mefA)) [µg/mL] | MIC H. influenzae 1218 [5, 7] [µg/mL]
CCOc1ccc(S(=O)(=O)N2CC(N3C(=O)OC4(C)C(CC)OC(=O)C(C)C(=O)C(C)C(OC5OC(C)CC(N(C)C)C5O)C(C)(OC)CC(C)C(=O)C(C)C34)C2)c2cccnc12 (stereo not shown) [Example 3.102, 3-descladinosyl-11,12-dideoxy-6-O-methyl-3-oxo-12,11-(oxycarbonyl-(1-(8-ethoxyquinoline-5-sulfonyl)-azetidin-3-yl)-imino)erythromycin A] | <0.063 | <0.063 | <0.063 | <0.063 | 1 (≈ 1.11 µM) | – | – | – | – | –
CCC1OC(=O)C(C)C(=O)C(C)C(OC2OC(C)CC(N(C)C)C2O)C(C)(OC)CC(C)C(=O)C(C)C2N(CC3CCCN3C(=O)c3cn4cccnc4n3)C(=O)OC12C (stereo not shown) [10.43] | – | – | – | – | – | >64.00 | <0.06 | <0.06 | 0.25 (≈ 0.297 µM) | 1 (≈ 1.19 µM)
CCC1OC(=O)C(C)C(=O)C(C)C(OC2OC(C)CC(N(C)C)C2O)C(C)(OC)CC(C)C(=O)C(C)C2N(C3CN(Cc4c(Cl)cnc5ccccc45)C3)C(=O)OC12C (stereo not shown) [Example 1.107, 3-descladinosyl-11,12-dideoxy-6-O-methyl-3-oxo-12,11-(oxycarbonyl-(1-(3-chloroquinoline-4-methyl)-azetidin-3-yl)-imino)erythromycin A] | 0.25 (≈ 0.296 µM) | <0.063 | <0.063 | <0.063 | 1 (≈ 1.19 µM) | – | – | – | – | –
CCC1OC(=O)C(C)C(=O)C(C)C(OC2OC(C)CC(N(C)C)C2O)C(C)(OC)CC(C)C(=O)C(C)C2N(C3CN(C(c4ccccc4)c4ccncc4)C3)C(=O)OC12C (stereo not shown) [Example 1.69, 3-descladinosyl-11,12-dideoxy-6-O-methyl-3-oxo-12,11-(oxycarbonyl-(1-(phenyl-(pyridin-4-yl)-methyl)-azetidin-3-yl)-imino)erythromycin A] | 8 (≈ 9.58 µM) | <0.06 | <0.06 | <0.06 | 1 (≈ 1.2 µM) | – | – | – | – | –
CC[C@H]1OC(=O)[C@H](C)C(=O)[C@H](C)[C@@H](O[C@@H]2O[C@H](C)C[C@H](N(C)C)[C@H]2O)[C@](C)(OC)C[C@@H](C)C(=O)[C@H](C)[C@H]2N(CC3(C)CN(Cc4c[nH]c5ccc(F)cc45)C3)C(=O)O[C@]12C [6.08] | 16 (≈ 19 µM) | <0.06 | <0.06 | 0.25 (≈ 0.297 µM) | 0.5 (≈ 0.593 µM) | – | – | – | – | –
CCC1OC(=O)C(C)C(=O)C(C)C(OC2OC(C)CC(N(C)C)C2O)C(C)(OC)CC(C)C(=O)C(C)C2N(C3CN(S(=O)(=O)c4ccc(F)c(C#N)c4)C3)C(=O)OC12C (stereo not shown) [Example 3.77, 3-descladinosyl-11,12-dideoxy-6-O-methyl-3-oxo-12,11-(oxycarbonyl-(1-(3-cyano-4-fluorobenzenesulfonyl)-azetidin-3-yl)-imino)-erythromycin A] | 8 (≈ 9.4 µM) | <0.06 | <0.06 | <0.06 | 1 (≈ 1.18 µM) | – | – | – | – | –
CCC1OC(=O)C(C)C(=O)C(C)C(OC2OC(C)CC(N(C)C)C2O)C(C)(OC)CC(C)C(=O)C(C)C2N(CC3CCCN3C(=O)c3ccc4cccnc4c3)C(=O)OC12C.O=CO (stereo not shown) [10.15] | – | – | – | – | – | >64.00 | <0.06 | <0.06 | 0.25 | 2
CCC1OC(=O)C(C)C(=O)C(C)C(OC2OC(C)CC(N(C)C)C2O)C(C)(OC)CC(C)C(=O)C(C)C2N(C3CN(S(=O)(=O)c4cncc(-c5cnco5)c4)C3)C(=O)OC12C (stereo not shown) [Example 3.75] | 16 (≈ 18.3 µM) | <0.06 | <0.06 | <0.06 | 1 (≈ 1.14 µM) | – | – | – | – | –
CCC1OC(=O)C(C)C(=O)C(C)C(OC2OC(C)CC(N(C)C)C2O)C(C)(OC)CC(C)C(=O)C(C)C2N(C3CN(Cc4ccnc5ncsc45)C3)C(=O)OC12C (stereo not shown) [Example 1.35, 3-descladinosyl-11,12-dideoxy-6-O-methyl-3-oxo-12,11-(oxycarbonyl-(1-((thiazolo[4,5-b]pyridin-7-yl)-methyl)-azetidin-3-yl)-imino)erythromycin A] | 4 (≈ 4.9 µM) | <0.06 | <0.06 | 0.12 (≈ 0.147 µM) | 1 (≈ 1.23 µM) | – | – | – | – | –
CC[C@H]1OC(=O)[C@H](C)C(=O)[C@H](C)[C@@H](O[C@@H]2O[C@H](C)C[C@H](N(C)C)[C@H]2O)[C@](C)(OC)C[C@@H](C)C(=O)[C@H](C)[C@H]2N(CC3(O)CN(S(=O)(=O)c4cccc5cnccc45)C3)C(=O)O[C@]12C [7.14] | – | – | – | – | – | >64.00 | <0.06 | 1 (≈ 1.12 µM) | 0.12 (≈ 0.135 µM) | 0.25 (≈ 0.281 µM)
CC[C@H]1OC(=O)[C@H](C)C(=O)[C@H](C)[C@@H](O[C@@H]2O[C@H](C)C[C@H](N(C)C)[C@H]2O)[C@](C)(OC)C[C@@H](C)C(=O)[C@H](C)[C@H]2N(CC3(C)CN(Cc4cccc5nccnc45)C3)C(=O)O[C@]12C [6.05] | >64.00 | <0.06 | <0.06 | 0.12 (≈ 0.143 µM) | 1 (≈ 1.19 µM) | – | – | – | – | –
CCC1OC(=O)C(C)C(=O)C(C)C(OC2OC(C)CC(N(C)C)C2O)C(C)(OC)CC(C)C(=O)C(C)C2N(C3CN(S(=O)(=O)c4ccc(-n5cccn5)c(F)c4)C3)C(=O)OC12C (stereo not shown) [Example 3.86, 3-descladinosyl-11,12-dideoxy-6-O-methyl-3-oxo-12,11-(oxycarbonyl-(1-(3-fluoro-4-(1H-pyrazol-1-yl)benzenesulfonyl)-azetidin-3-yl)-imino)-erythromycin A] | 1 (≈ 1.12 µM) | <0.06 | <0.06 | <0.06 | 1 (≈ 1.12 µM) | – | – | – | – | –
CCC1OC(=O)C(C)C(=O)C(C)C(OC2OC(C)CC(N(C)C)C2O)C(C)(OC)CC(C)C(=O)C(C)C2N(C3CN(S(=O)(=O)c4ccc(OC)c(OCC#N)c4)C3)C(=O)OC12C (stereo not shown) [Example 3.109, 3-descladinosyl-11,12-dideoxy-6-O-methyl-3-oxo-12,11-(oxycarbonyl-(1-(3-(cyanomethoxy)-4-methoxybenzene-1-sulfonyl)-azetidin-3-yl)-imino)-erythromycin A] | 0.125 (≈ 0.14 µM) | <0.063 | <0.063 | <0.063 | <0.063 | – | – | – | – | –
CCC1OC(=O)C(C)C(=O)C(C)C(OC2OC(C)CC(N(C)C)C2O)C(C)(OC)CC(C)C(=O)C(C)C2N(CC3CCCN3C(=O)c3ccc4cnccc4n3)C(=O)OC12C (stereo not shown) [10.49] | – | – | – | – | – | >64.00 | <0.06 | 2 (≈ 2.35 µM) | 2 (≈ 2.35 µM) | 8 (≈ 9.39 µM)
